Experimental data published in patent US10562898B2, “Substituted benzenesulfonamides as inhibitors of alpha-4 beta-7 integrin activity” (EA PHARMA CO., LTD., priority 2016, dated 2020).

target: T1, α4β7 integrin (Homo sapiens, UniProt P13612+P26010); test: MAdCAM-1/α4β7 integrin binding inhibitory activity evaluation test (RPMI-8866 cells binding to MAdCAM-1/Fc); format: cell-based; details: recombinant mouse MAdCAM-1/Fc, no serum
T1 construct: a cell line RPMI-8866, which is known to express α4β7 integrin; endogenous in cells; host or cells: RPMI-8866 (human B cell line)
T1 sequence (P13612 34-1032): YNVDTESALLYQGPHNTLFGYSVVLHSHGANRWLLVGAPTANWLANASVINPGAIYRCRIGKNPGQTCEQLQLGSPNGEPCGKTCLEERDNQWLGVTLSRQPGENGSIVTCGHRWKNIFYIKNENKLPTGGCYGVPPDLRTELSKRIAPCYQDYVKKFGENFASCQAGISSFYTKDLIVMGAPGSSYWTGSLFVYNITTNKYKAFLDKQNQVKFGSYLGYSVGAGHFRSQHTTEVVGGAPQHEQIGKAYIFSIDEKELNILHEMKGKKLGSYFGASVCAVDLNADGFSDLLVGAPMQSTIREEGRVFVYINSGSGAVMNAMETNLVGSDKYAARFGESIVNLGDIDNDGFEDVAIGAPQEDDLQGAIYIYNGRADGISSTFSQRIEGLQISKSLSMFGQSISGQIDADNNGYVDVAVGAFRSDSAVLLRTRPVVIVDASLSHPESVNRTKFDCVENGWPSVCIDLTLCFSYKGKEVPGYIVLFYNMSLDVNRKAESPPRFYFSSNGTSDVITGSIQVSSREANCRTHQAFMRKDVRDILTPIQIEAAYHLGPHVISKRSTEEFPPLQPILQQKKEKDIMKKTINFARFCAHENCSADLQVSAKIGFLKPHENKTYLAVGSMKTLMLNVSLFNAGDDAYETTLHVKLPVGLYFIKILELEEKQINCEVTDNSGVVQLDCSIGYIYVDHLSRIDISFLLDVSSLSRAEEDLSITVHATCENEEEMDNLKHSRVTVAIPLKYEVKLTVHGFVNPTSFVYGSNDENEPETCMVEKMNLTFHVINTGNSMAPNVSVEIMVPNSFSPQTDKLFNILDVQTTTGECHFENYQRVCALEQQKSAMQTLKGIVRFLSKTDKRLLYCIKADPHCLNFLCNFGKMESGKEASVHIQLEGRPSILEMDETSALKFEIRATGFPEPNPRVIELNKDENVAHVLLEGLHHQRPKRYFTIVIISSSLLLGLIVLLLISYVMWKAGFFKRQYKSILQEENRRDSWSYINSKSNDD
T1 sequence (P26010 20-798): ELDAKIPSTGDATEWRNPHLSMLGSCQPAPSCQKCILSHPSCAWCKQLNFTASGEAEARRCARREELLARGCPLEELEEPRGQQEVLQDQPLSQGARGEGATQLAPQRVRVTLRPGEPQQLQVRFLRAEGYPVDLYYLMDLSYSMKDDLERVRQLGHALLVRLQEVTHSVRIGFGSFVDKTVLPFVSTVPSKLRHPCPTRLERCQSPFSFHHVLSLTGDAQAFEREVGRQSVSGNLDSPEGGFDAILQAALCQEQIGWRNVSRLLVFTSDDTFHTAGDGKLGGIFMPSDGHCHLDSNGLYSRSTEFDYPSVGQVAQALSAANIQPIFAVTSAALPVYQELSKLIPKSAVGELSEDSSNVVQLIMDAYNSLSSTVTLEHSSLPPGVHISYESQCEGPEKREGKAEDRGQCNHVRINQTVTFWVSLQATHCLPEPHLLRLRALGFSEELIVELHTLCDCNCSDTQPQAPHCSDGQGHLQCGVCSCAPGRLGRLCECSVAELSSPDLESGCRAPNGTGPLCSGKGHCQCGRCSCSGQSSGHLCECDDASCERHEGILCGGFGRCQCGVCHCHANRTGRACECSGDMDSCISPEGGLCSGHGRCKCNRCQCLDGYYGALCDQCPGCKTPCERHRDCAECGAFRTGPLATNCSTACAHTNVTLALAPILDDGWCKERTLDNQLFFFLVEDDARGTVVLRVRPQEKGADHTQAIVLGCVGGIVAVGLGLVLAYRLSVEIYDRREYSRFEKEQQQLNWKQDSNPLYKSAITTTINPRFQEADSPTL
Protocol: (2) MAdCAM-1/α4β7 Integrin Binding Inhibitory Activity Evaluation Test
Each test substance was measured in terms of an ability to inhibit the MAdCAM-1 binding of a human B cell line, namely, a cell line RPMI-8866, which is known to express α4β7 integrin.
A solution of recombinant mouse MAdCAM-1/Fc (R&D Systems, Inc.) (0.75 μg/mL) diluted with a buffer A (carbonate buffer, pH 9.6) was added in an amount of 50 μL/well to a 96-well microtiter plate, followed by incubation at 4° C. overnight. After the plate was washed with PBS once, 150 μL/well of Block Ace (Snow Brand Milk Products Co., Ltd.) was added, followed by incubation at room temperature for 2 hours. After removal, the plate was washed with PBS once.
Then, 100 μL of the RPMI-8866 cells (2×10^6 cells/mL) and 100 μL of the test substance at each of various concentrations diluted with a binding buffer (DMEM containing 40 mM HEPES, 0.2% BSA, and 4 mM MnCl2) were added on the plate coated with the MAdCAM-1/Fc (5×10^5 cells/well), followed by incubation at 30° C. for 15 to 60 minutes. After the cells were bound to the wells, the plate was washed with PBS to remove unbound cells. A buffer C (PBS containing 1.5% Triton X-100) in an amount 50 μL/well was added to the plate to lyse the bound RPMI-8866 cells. After 30 μL of a substrate buffer (Promega, CytoTox 96 Non-Radioactive Cytotoxicity Assay) was added to 30 μL of the cell lysate, a reaction was allowed to proceed at room temperature in the dark for 30 minutes. After 30 μL of a stop solution (Promega, CytoTox 96 Non-Radioactive Cytotoxicity Assay) was added to each, and then an absorbance at 490 nm was measured using a plate reader. The absorbance obtained here represents a detection result of an activity of lactate dehydrogenase (LDH) eluted in the supernatant of each well, that is, the absorbance is proportional to the number of RPMI-8866 cells bound to the MAdCAM-1 and thus remaining on the plate. The test was performed in duplicate. Provided that the absorbance of the well containing no test substance was 100%, a cell binding rate with the test substance at each of the various concentrations was figured out, and a concentration IC50 which brought about 50% binding inhibition was calculated.

Row | IC50 [nM] | Structure (SMILES)
1 | 0.98 | Cc1c(C)n(C)c(=O)n(-c2ccc(C[C@H](NC(=O)c3cc(F)c(NS(=O)(=O)c4ccc(NC(=O)C5(O)CC5)cc4)cc3F)C(=O)O)cc2)c1=O [Compound A22]
2 | 1.8 | Cc1cn(C)c(=O)n(-c2ccc(C[C@H](NC(=O)c3cc(F)c(NS(=O)(=O)c4ccc(NC(=O)C(C)(C)C)cc4)cc3F)C(=O)O)nc2)c1=O [Compound A69]
3 | 0.72 | CCC(CC)C(=O)Nc1ccc(S(=O)(=O)Nc2cc(F)c(C(=O)N[C@@H](Cc3ccc(-n4c(=O)c5ccncc5n(C)c4=O)cc3)C(=O)O)cc2F)cc1 [Compound A3]
4 | 6.4 | Cc1c(C)n(C)c(=O)n(-c2ccc(C[C@H](NC(=O)c3cc(F)c(NS(=O)(=O)c4cccc(NC(=O)C(C)(C)C)c4)cc3F)C(=O)O)cn2)c1=O [Compound A50]
5 | 0.36 | Cn1c2c(c(=O)n(-c3ccc(C[C@H](NC(=O)c4cc(F)c(NS(=O)(=O)c5ccc(NC(=O)C(C)(C)C)cc5)cc4F)C(=O)O)cc3)c1=O)CCOC2 [Compound A27]
6 | 0.76 | Cc1cc(=O)n(-c2ccc(C[C@H](NC(=O)c3cc(F)c(NS(=O)(=O)c4ccc(NC(=O)C(C)(C)C)cc4)cc3F)C(=O)O)cc2)c(=O)n1C [Compound A46]
7 | 0.71 | Cn1c(=O)n(-c2ccc(C[C@H](NC(=O)c3cc(F)c(NS(=O)(=O)c4ccc(NC(=O)C(C)(C)C)cn4)cc3F)C(=O)O)cn2)c(=O)c2ccncc21 [Compound A31]
8 | 1.8 | Cc1cc(=O)n(-c2ccc(C[C@H](NC(=O)c3cc(F)c(NS(=O)(=O)c4ccc(NC(=O)C(C)(C)C)cc4)cc3F)C(=O)O)nc2)c(=O)n1C [Compound A72]
9 | 6.9 | CCC(CC)C(=O)Nc1ccc(S(=O)(=O)Nc2cc(F)c(C(=O)N[C@@H](Cc3ccc(-n4c(=O)ccn(C)c4=O)nc3)C(=O)O)cc2F)cc1 [Compound A61]
10 | 0.34 | Cc1c(C)n(C)c(=O)n(-c2ccc(C[C@H](NC(=O)c3cc(F)c(NS(=O)(=O)c4ccc(NC(=O)C(C)(C)CO)cc4)cc3F)C(=O)O)cc2)c1=O [Compound A21]
11 | 1.6 | Cc1cn(C)c(=O)n(-c2ccc(C[C@H](NC(=O)c3cc(F)c(NS(=O)(=O)c4ccc(NC(=O)C(C)(C)C)cc4)cc3F)C(=O)O)cn2)c1=O [Compound A54]
12 | 1.9 | Cn1cc(C(F)(F)F)c(=O)n(-c2ccc(C[C@H](NC(=O)c3cc(F)c(NS(=O)(=O)c4ccc(NC(=O)C(C)(C)C)cc4)cc3F)C(=O)O)cn2)c1=O [Compound A67]
13 | 4 | CN1CCC(=O)N(c2ccc(C[C@H](NC(=O)c3cc(F)c(NS(=O)(=O)c4ccc(NC(=O)C(C)(C)C)cc4)cc3F)C(=O)O)cn2)C1=O [Compound A75, (2S)-2-[2,5-difluoro-4-[(4-pivalamidophenyl)sulfonamide]benzamido]-3-[6-(3-methyl-2,6-dioxotetrahydropyrimidin-1(2H)-yl)pyridin-3-yl]propanoic acid]
14 | 2.9 | Cc1c(C)n(C)c(=O)n(-c2ccc(C[C@H](NC(=O)c3cc(F)c(NS(=O)(=O)c4cccc(NC(=O)C(C)(C)C)c4)cc3F)C(=O)O)cc2)c1=O [Compound A49]

Second part, the compound before the results:

Row | Structure (SMILES) | IC50 [nM]
15 | Cn1c(=O)n(-c2ccc(C[C@H](NC(=O)c3cc(F)c(NS(=O)(=O)c4ccc(NC(=O)C5CCNCC5)cc4)cc3F)C(=O)O)cc2)c(=O)c2ccncc21 [Compound A6, (2S)-2-[[2,5-difluoro-4-[[4-(piperidine-4-carbonylamino)phenyl]sulfonylamino]benzoyl]amino]-3-[4-(1-methyl-2,4-dioxo-pyrido[3,4-d]pyrimidin-3-yl)phenyl]propanoic acid] | 2.4
16 | Cc1c(C)n(C)c(=O)n(-c2ccc(C[C@H](NC(=O)c3cc(F)c(NS(=O)(=O)c4ccc(NC(=O)C(C)(C)C)nc4)cc3F)C(=O)O)cc2)c1=O [Compound A25] | 1.1
17 | Cn1c(=O)n(-c2ccc(C[C@H](NC(=O)c3cc(F)c(NS(=O)(=O)c4ccc(NC(=O)C5(c6ccccc6)CC5)cc4)cc3F)C(=O)O)cn2)c(=O)c2ccncc21 [Compound A29] | 0.95
18 | Cn1ccc(=O)n(-c2ccc(C[C@H](NC(=O)c3cc(F)c(NS(=O)(=O)c4ccc(NC(=O)C5(C#N)CC5)cc4)cc3F)C(=O)O)cn2)c1=O [Compound A59] | 3.3
19 | Cc1c(C)n(C)c(=O)n(-c2ccc(C[C@H](NC(=O)c3cc(F)c(NS(=O)(=O)c4ccc(NC(=O)C(C)(C)C)cc4)cc3F)C(=O)O)cc2)c1=O [Compound A8] | 0.33
20 | Cc1cn(C)c(=O)n(-c2ccc(C[C@H](NC(=O)c3cc(F)c(NS(=O)(=O)c4ccc(NC(=O)C5CCCC5)cc4)cc3F)C(=O)O)cn2)c1=O [Compound A65] | 3.3
21 | Cn1ccc(=O)n(-c2ccc(C[C@H](NC(=O)c3cc(F)c(NS(=O)(=O)c4ccc(NC(=O)C(C)(C)C(F)(F)F)cc4)cc3F)C(=O)O)cn2)c1=O [Compound A57] | 2
22 | Cc1c(C)n(C)c(=O)n(-c2ccc(C[C@H](NC(=O)c3cc(F)c(NS(=O)(=O)c4ccc(-n5ccc(C6CCOCC6)cc5=O)cc4)cc3F)C(=O)O)cc2)c1=O [Compound A34] | 3.4
23 | Cn1c2c(c(=O)n(-c3ccc(C[C@H](NC(=O)c4cc(F)c(NS(=O)(=O)c5ccc(NC(=O)C(C)(C)C)cc5)cc4F)C(=O)O)nc3)c1=O)CCCC2 [Compound A47] | 0.74
24 | Cc1cn(C)c(=O)n(-c2ccc(C[C@H](NC(=O)c3cc(F)c(NS(=O)(=O)c4ccc(NC(=O)C(C)(C)C(F)(F)F)cc4)cc3F)C(=O)O)cn2)c1=O [Compound A58] | 1.3
25 | Cn1c(=O)n(-c2ccc(C[C@H](NC(=O)c3cc(F)c(NS(=O)(=O)c4ccc(NC(=O)C5(C(F)(F)F)CC5)cc4)cc3F)C(=O)O)cc2)c(=O)c2ccncc21 [Compound A24] | 0.3
26 | Cc1c(C)n(C)c(=O)n(-c2ccc(C[C@H](NC(=O)c3cc(F)c(NS(=O)(=O)c4ccc(NC(=O)C(C)(C)C)s4)cc3F)C(=O)O)cc2)c1=O [Compound A10] | 0.38
27 | Cc1cc(=O)n(-c2ccc(C[C@H](NC(=O)c3cc(F)c(NS(=O)(=O)c4ccc(NC(=O)C(C)(C)C)cc4)cc3F)C(=O)O)cn2)c(=O)n1C [Compound A45] | 1.6
